# According to patent publication US20250171461A1, “STIMULATOR OF INTERFERON GENES (STING) MODULATORS, AND COMPOSITIONS AND METHODS THEREOF” (Geode Therapeutics Inc., priority 2022, published 2025):
# Key:
# [1] = biological target: T1, hERG channel (Homo sapiens, UniProt Q12809); assay: hERG safety evaluation, manual whole cell patch clamp in hERG-expressing HEK 293 cells; format: cell-based; settings: hERG stably expressed HEK 293 cells, tail current, whole cell recording
# T1 construct: host or cells: HEK 293
# T1 sequence (Q12809 whole entry): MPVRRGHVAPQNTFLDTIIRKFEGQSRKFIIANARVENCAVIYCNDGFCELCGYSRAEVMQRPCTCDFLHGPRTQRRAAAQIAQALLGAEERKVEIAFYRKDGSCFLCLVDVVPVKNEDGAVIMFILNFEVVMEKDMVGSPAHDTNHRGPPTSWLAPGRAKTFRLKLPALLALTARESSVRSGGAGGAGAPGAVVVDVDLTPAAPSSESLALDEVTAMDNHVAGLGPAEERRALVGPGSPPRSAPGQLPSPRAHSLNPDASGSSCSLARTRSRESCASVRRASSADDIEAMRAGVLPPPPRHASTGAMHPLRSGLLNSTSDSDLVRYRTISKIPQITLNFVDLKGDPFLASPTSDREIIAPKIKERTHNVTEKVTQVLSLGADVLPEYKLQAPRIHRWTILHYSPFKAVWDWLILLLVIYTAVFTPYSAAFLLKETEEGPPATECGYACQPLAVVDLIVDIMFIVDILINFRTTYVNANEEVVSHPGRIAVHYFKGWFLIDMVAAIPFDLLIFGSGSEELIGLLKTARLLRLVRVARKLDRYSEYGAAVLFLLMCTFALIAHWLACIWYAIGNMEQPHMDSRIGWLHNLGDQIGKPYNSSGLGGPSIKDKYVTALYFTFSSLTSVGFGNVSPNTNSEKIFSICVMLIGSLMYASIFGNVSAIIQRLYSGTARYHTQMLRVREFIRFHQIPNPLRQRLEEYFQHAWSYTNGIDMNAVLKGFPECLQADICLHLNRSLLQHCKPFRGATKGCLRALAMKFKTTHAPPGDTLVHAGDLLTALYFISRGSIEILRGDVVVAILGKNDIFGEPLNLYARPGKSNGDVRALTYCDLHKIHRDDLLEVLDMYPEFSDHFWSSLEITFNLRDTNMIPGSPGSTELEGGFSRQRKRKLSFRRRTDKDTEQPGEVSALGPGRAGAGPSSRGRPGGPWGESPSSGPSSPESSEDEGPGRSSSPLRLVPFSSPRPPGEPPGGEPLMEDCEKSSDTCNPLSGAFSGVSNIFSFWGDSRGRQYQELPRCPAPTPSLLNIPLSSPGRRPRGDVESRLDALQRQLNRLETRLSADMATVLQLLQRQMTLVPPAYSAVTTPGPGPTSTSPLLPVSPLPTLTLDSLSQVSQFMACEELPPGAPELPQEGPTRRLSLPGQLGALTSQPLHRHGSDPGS
# Procedure: (1) hERG stably expressed HEK 293 cell line (#60187) was purchased from BPS Bioscience and P3-P20 were used for the study. Cells were cultured in medium containing: 90% MEM, 10% FBS, 0.1 mM NEAA, 100 U/mL Penicillin-Streptomycin, 1 mM Na pyruvate and 500 μg/mL Geneticin. Cells are split about three times a week, and maintained between ˜40% to ˜80% confluence. 24 to 48 hours prior to recordings, the cells were plated on 0.05 mg/mL PDL pre-coated glass cover slips placed in 48-well plate at 1×10^4 cells. (2) The number of cells being plated on the cover slip should reach a confluence rate at which majority of the cells are single. (1) Test compounds were initially prepared in DMSO with final concentration of 10 mM as stock solution. (2) Compound was first made into 10, 3, 1, 0.3 and 0.1 mM DMSO stock, then serial diluted into the desired test concentrations in the extracellular solution (ECs). 30 uM test solution was diluted from 10 mM DMSO stock. The final DMSO concentration was in range of 0.1-0.3%. HEKA EPC 10 USB patch clamp amplifier (from HEKA Elektronik, Germany) was used in the whole cell recording. A cover slip with plenty of single HEK293 hERG cells on the surface was removed and placed into a continuously perfused (approximately 1 ml/minute) recording chamber mounted on an inverted microscope. HERG channel currents were recorded from single cells using standard whole cell recording techniques. The cells were voltage clamped at a holding potential of −80 mV. Then hERG current was activated by depolarizing at +30 mV for 5000 ms, after which the current was taken back to −50 mV for 5000 ms to remove the inactivation and observe the deactivating tail current. The K+ tail current through HERG channels observed during this step was allowed to stabilize under continuous bath perfusion. Cells were then superfused with drug until steady state block was achieved. Steady state was considered reached when three consecutive super-imposable current records were collected. At this point, cells were once again superfused with extracellular solution until the current amplitude returned to values close to those measured before application of drug. (1) Percent current inhibition was calculated using the following equation. (Note: PatchMaster was used to extract the peak current from the original data.) (2) The dose response curve of test compounds was plotted with % inhibition against the concentration of test compounds using Graphpad Prism 9.0, and fit the data to a log(inhibitor) vs. response—Variable slope curve.
# [2] = biological target: T2, human HAQ STING isoform (hSTING HAQ) (Homo sapiens, UniProt Q86WV6, G230A/H232R/R293Q/R71H); assay: IFN-β mRNA level in THP1 cells (qPCR, STING agonist cellular activity); format: cell-based; settings: compound at 3.6 μM, 2 hrs, IFNβ expression normalized against GAPDH by the 2^-ΔΔCT method, DMSO = 1.0
# T2 construct: THP1 cells express the naturally occurring human HAQ STING isoform (hSTING HAQ); host or cells: THP1
# T2 sequence (Q86WV6 whole entry R71H/G230A/H232R/R293Q, canonical isoform): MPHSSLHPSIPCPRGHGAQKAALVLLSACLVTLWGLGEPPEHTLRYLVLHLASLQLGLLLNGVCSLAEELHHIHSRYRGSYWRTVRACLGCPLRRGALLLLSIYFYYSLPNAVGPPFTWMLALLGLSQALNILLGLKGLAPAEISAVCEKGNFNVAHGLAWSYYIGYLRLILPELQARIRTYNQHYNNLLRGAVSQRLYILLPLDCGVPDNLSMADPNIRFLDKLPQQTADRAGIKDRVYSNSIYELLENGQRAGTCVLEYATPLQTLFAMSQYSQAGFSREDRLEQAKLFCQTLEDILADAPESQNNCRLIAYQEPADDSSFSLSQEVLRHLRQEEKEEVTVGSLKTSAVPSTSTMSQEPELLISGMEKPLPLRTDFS
# Summary of the method: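 THP1 cells were seeded at 9×10^5 per well, incubated overnight, then treated with compound at 3.6 μM final (0.1% DMSO control) for 2 hrs at 37 °C. IFN-β mRNA was measured by SYBR Green qPCR, normalised to GAPDH by the 2^−ΔΔCT method, in triplicate.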
Structure (SMILES),Relative mRNA INFβ/GAPDH THP 1 [2],IC50 [1] [nM]
"COc1cc(CN(Cc2cn3c4c(c(F)c(F)cc4c2=O)OCC3C)[C@H]2CCCN(c3ccc(N)nc3)C2)ccn1 (stereo partly drawn) [Compound 1, 6-((((S)-1-(6-aminopyridin-3-yl)piperidin-3-yl)((2-methoxypyridin-4-yl)methyl)amino)methyl)-9,10-difluoro-3-methyl-2H-[1,4]oxazino[2,3,4-ij]quinolin-7(3H)-one]",447.9,1580
"COc1cc(CN(Cc2cn3c4c(c(N5CCN(C)CC5)c(F)cc4c2=O)OCC3C)[C@H]2CCCN(c3ccc(N)nc3)C2)ccn1 (stereo partly drawn) [Compound 29, 6-((((S)-1-(6-aminopyridin-3-yl)piperidin-3-yl)((2-methoxypyridin-4-yl)methyl)amino)methyl)-9-fluoro-3-methyl-10-(4-methylpiperazin-1-yl)-2H-[1,4]oxazino[2,3,4-ij]quinolin-7(3H)-one]",3330.1,34100
"COc1cc(CN(Cc2cn3c4c(c(F)c(F)cc4c2=O)OCC3C(C)C)[C@H]2CCCN(c3ccc(N)nc3)C2)ccn1 (stereo partly drawn) [Compound 53, 6-((((S)-1-(6-aminopyridin-3-yl)piperidin-3-yl)((2-methoxypyridin-4-yl)methyl)amino)methyl)-9,10-difluoro-3-isopropyl-2H-[1,4]oxazino[2,3,4-ij]quinolin-7(3H)-one]",433.0,1270
"COCC1COc2c(F)c(F)cc3c(=O)c(CN(Cc4ccnc(OC)c4)[C@H]4CCCN(c5ccc(N)nc5)C4)cn1c23 (stereo partly drawn) [Compound 82, 6-((((S)-1-(6-aminopyridin-3-yl)piperidin-3-yl)((2-methoxypyridin-4-yl)methyl)amino)methyl)-9,10-difluoro-3-(methoxymethyl)-2,3-dihydro-7H-[1,4]oxazino[2,3,4-ij]quinolin-7-one]",349.0,3140
"Cc1cc(CN(Cc2cn3c4c(c(F)c(F)cc4c2=O)SCC3)[C@H]2CCCN(c3cnccn3)C2)ccn1 [Compound 97, (S)-9,10-difluoro-6-((((2-methylpyridin-4-yl)methyl)(1-(pyrazin-2-yl)piperidin-3-yl)amino)methyl)-2,3-dihydro-7H-[1,4]thiazino[2,3,4-ij]quinolin-7-one]",1.0,
"Cc1ccc(N2CCC[C@H](N(Cc3ccnc(C)c3)Cc3cn4c5c(c(OCCO)c(F)cc5c3=O)OCC4C)C2)cn1 (stereo partly drawn) [Compound 101, 9-fluoro-10-(2-hydroxyethoxy)-3-methyl-6-((((S)-1-(6-methylpyridin-3-yl)piperidin-3-yl)((2-methylpyridin-4-yl)methyl)amino)methyl)-2,3-dihydro-7H-[1,4]oxazino[2,3,4-ij]quinolin-7-one]",332.9,
"Cc1ccc(N2CCC[C@H](N(Cc3ccnc(C)c3)Cc3cn4c5c(c(O)c(F)cc5c3=O)OCC4C)C2)cn1 (stereo partly drawn) [Compound 102, 9-fluoro-10-hydroxy-3-methyl-6-((((S)-1-(6-methylpyridin-3-yl)piperidin-3-yl)((2-methylpyridin-4-yl)methyl)amino)methyl)-2,3-dihydro-7H-[1,4]oxazino[2,3,4-ij]quinolin-7-one]",0.9,
"COc1cc(CN(Cc2cn3c4c(c(OC)c(F)cc4c2=O)OCC3C)[C@H]2CCCN(c3ccc(N)nc3)C2)ccn1 (stereo partly drawn) [Compound 103, 6-((((S)-1-(6-aminopyridin-3-yl)piperidin-3-yl)((2-methoxypyridin-4-yl)methyl)amino)methyl)-9-fluoro-10-methoxy-3-methyl-2,3-dihydro-7H-[1,4]oxazino[2,3,4-ij]quinolin-7-one]",356.0,

# Second part, led by results:
Relative mRNA INFβ/GAPDH THP 1 [2],Structure (SMILES),IC50 [1] [nM]
7328.8,"COc1cc(CN(Cc2cn3c4c(c(F)c(F)cc4c2=O)OCC3)[C@H]2CCCN(c3ccc(N)nc3)C2)ccn1 [Compound 66, (S)-6-(((1-(6-aminopyridin-3-yl)piperidin-3-yl)((2-methoxypyridin-4-yl)methyl)amino)methyl)-9,10-difluoro-2,3-dihydro-7H-[1,4]oxazino[2,3,4-ij]quinolin-7-one]",2720
7398.9,"COc1cc(CN(Cc2cn3c4c(c(F)c(F)cc4c2=O)CCC3)[C@H]2CCCN(c3ccc(N)nc3)C2)ccn1 [Compound 67, (S)-2-(((1-(6-aminopyridin-3-yl)piperidin-3-yl)((2-methoxypyridin-4-yl)methyl)amino)methyl)-8,9-difluoro-6,7-dihydro-1H,5H-pyrido[3,2,1-ij]quinolin-1-one]",3080
9547.9,"COc1cc(CN(Cc2cn3c4c(c(F)c(F)cc4c2=O)SCC3)[C@H]2CCCN(c3ccc(N)nc3)C2)ccn1 [Compound 69, 9,10-difluoro-6-({[(3S)-1-(6-aminopyridin-3-yl)hexahydropyridin-3-yl][(2-methoxypyridin-4-yl)methyl]amino}methyl)-3,7-dihydro-2H-[1,4]thiazino[2,3,4-ij]quinolin-7-one]",1940
301.6,"COc1cc(CN(Cc2cn3c4c(c(F)c(F)cc4c2=O)SCC3)[C@H]2CCCN(c3ccc(NCC4CC4)nc3)C2)ccn1 [Compound 98, (S)-6-(((1-(6-((cyclopropylmethyl)amino)pyridin-3-yl)piperidin-3-yl)((2-methoxypyridin-4-yl)methyl)amino)methyl)-9,10-difluoro-2,3-dihydro-7H-[1,4]thiazino[2,3,4-ij]quinolin-7-one]",
368.7,"COc1cc(CN(Cc2cn3c4c(c(F)c(F)cc4c2=O)OCC3)[C@H]2CCCN(c3ccc(NCC4CC4)nc3)C2)ccn1 [Compound 99, (S)-6-(((1-(6-((cyclopropylmethyl)amino)pyridin-3-yl)piperidin-3-yl)((2-methoxypyridin-4-yl)methyl)amino)methyl)-9,10-difluoro-2,3-dihydro-7H-[1,4]oxazino[2,3,4-ij]quinolin-7-one]",
581.3,"CCC1COc2c(F)c(F)cc3c(=O)c(CN(Cc4ccnc(OC)c4)[C@H]4CCCN(c5ccc(N)nc5)C4)cn1c23 (stereo partly drawn) [Compound 100, 6-((((S)-1-(6-aminopyridin-3-yl)piperidin-3-yl)((2-methoxypyridin-4-yl)methyl)amino)methyl)-3-ethyl-9,10-difluoro-2,3-dihydro-7H-[1,4]oxazino[2,3,4-ij]quinolin-7-one]",
